Experimental data as given in ChEMBL document CHEMBL2429759, “Anti-tumor activity evaluation of novel chrysin-organogermanium(IV) complex in MCF-7 cells” (Bioorg Med Chem Lett, 2013).

Experiments:
COLO 205 [1] = assay: Growth inhibition of human COLO205 cells at 20 ug/ml by MTT assay; format: functional; settings: read-out: GI
[2] = Growth inhibition of human MCF10A cells at 30 ug/ml by MTT assay; format: cell-based, MCF-10A; settings: MCF10A cells, read-out: GI
COLO 205 [3] = assay: Growth inhibition of human COLO205 cells at 30 ug/ml by MTT assay; format: functional; settings: read-out: GI
MCF7 [4] = assay: Growth inhibition of human MCF7 cells at 30 ug/ml by MTT assay; format: functional; settings: read-out: GI
HepG2 [5] = assay: Growth inhibition of human HepG2 cells at 20 ug/ml by MTT assay; format: functional; settings: read-out: GI
MCF7 [6] = assay: Growth inhibition of human MCF7 cells at 5 ug/ml by MTT assay; format: functional; settings: read-out: GI
COLO 205 [7] = assay: Growth inhibition of human COLO205 cells by MTT assay; format: functional, cell-based
HepG2 [8] = assay: Growth inhibition of human HepG2 cells at 30 ug/ml by MTT assay; format: functional; settings: read-out: GI
HepG2 [9] = assay: Growth inhibition of human HepG2 cells at 10 ug/ml by MTT assay; format: functional; settings: read-out: GI
MCF7 [10] = assay: Growth inhibition of human MCF7 cells at 10 ug/ml by MTT assay; format: functional; settings: read-out: GI
HepG2 [11] = assay: Growth inhibition of human HepG2 cells by MTT assay; format: functional, cell-based
[12] = Growth inhibition of human MCF10A cells at 20 ug/ml by MTT assay; format: cell-based, MCF-10A; settings: MCF10A cells, read-out: GI
[13] = Growth inhibition of human MCF10A cells at 5 ug/ml by MTT assay; format: cell-based, MCF-10A; settings: MCF10A cells, read-out: GI
[14] = Growth inhibition of human MCF10A cells at 10 ug/ml by MTT assay; format: cell-based, MCF-10A; settings: MCF10A cells, read-out: GI
COLO 205 [15] = assay: Growth inhibition of human COLO205 cells at 5 ug/ml by MTT assay; format: functional; settings: read-out: GI
MCF7 [16] = assay: Growth inhibition of human MCF7 cells by MTT assay; format: functional, cell-based
MCF7 [17] = assay: Growth inhibition of human MCF7 cells at 20 ug/ml by MTT assay; format: functional; settings: read-out: GI
HepG2 [18] = assay: Growth inhibition of human HepG2 cells at 5 ug/ml by MTT assay; format: functional; settings: read-out: GI
COLO 205 [19] = assay: Growth inhibition of human COLO205 cells at 10 ug/ml by MTT assay; format: functional; settings: read-out: GI

O=c1cc(-c2ccccc2)oc2cc(O)cc(O)c12 [CHRYSIN]
inhibition of growth at 20 µg/mL (COLO 205 [1]): 56.5%
inhibition at 30 ug/ml [2]: 29.6%
inhibition of growth at 30 µg/mL (COLO 205 [3]): 65.2%
inhibition of growth at 30 µg/mL (MCF7 [4]): 97%
inhibition of growth at 20 µg/mL (HepG2 [5]): 55.3%
inhibition of growth at 5 µg/mL (MCF7 [6]): 14.6%
growth inhibition (GI) (COLO 205 [7]): Dose-dependent effect
inhibition of growth at 30 µg/mL (HepG2 [8]): 65.1%
inhibition of growth at 10 µg/mL (HepG2 [9]): 29.2%
inhibition of growth at 10 µg/mL (MCF7 [10]): 45.2%
growth inhibition (GI) (HepG2 [11]): Dose-dependent effect
inhibition at 20 ug/ml [12]: 21.4%
inhibition at 5 ug/ml [13]: 5.92%
inhibition at 10 ug/ml [14]: 14.5%
inhibition of growth at 5 µg/mL (COLO 205 [15]): 15.2%
growth inhibition (GI) (MCF7 [16]): Dose-dependent effect
inhibition of growth at 20 µg/mL (MCF7 [17]): 86.5%
inhibition of growth at 5 µg/mL (HepG2 [18]): 14.8%
inhibition of growth at 10 µg/mL (COLO 205 [19]): 24.9%
